# US11612586B2, “Indole regulation of antigen presenting cells” (THE TEXAS A&M UNIVERSITY SYSTEM, priority 2016, dated 2023)
# “Also recorded” adds a separate entry of the source.
# Experiments:
# [1] = Pinero-Fernandez et al. 2011; cited from earlier work
# [2] = system: nitric oxide (NO); experiment: Nitric oxide production in DC2.4 and BMDC (Griess reaction)
# Protocol: The secretion of reactive oxygen species (ROS) and nitric oxide (NO) was investigated in DC2.4 and BMDC.
# Supernatants were then incubated with Griess reagent for 10 minutes and then absorbance was measured at 550 nm.
# [3] = system: naïve CD4+CD25− T cells; experiment: DC-T cell co-culture, polyclonal stimulation: Foxp3+ Treg induction; format: cell-based, mouse; details: naïve T cells co-cultured 72 hours with BMDCs conditioned with indole
# Protocol: FIG. 15 is a set of FACS plots showing that indole-conditioned DCs preferentially induce Foxp3+ Tregs (polyclonal stimulation). Naïve wild-type CD4+CD25− T cells were sorted and co-cultured with indole- or DMF-conditioned BMDCs. Cells were cultured together for 72 hours in the presence of soluble α-CD3 (5 ug/ml) as well as TGF-β (2 ng/ml) with or without IL-2 (100 U/ml). Subsequently, cells were stained for the transcription factor Foxp3 and analyzed by flow cytometry. Shaded gray histograms represent unstained controls. Representative data from one of four experiments is shown.
# To investigate whether indole-conditioned DCs preferentially induce Tregs, a co-culture system using FACS-sorted wild-type naïve CD4+CD25− T cells was employed. These naïve T cells were activated by antibodies against CD3 and CD28 in the presence of indole-conditioned BMDCs and cultured for 72 hours. Under this platform for polyclonal stimulation, a 2-fold increase in Treg induction in indole-DC cultures compared to controls was observed (FIG. 15). Additionally, the inventors pursued the same question in a more physiologically relevant model; i.e., under monoclonal T cell stimulation. […]
# [4] = system: CCR9; experiment: CCR9 induction on naïve T cells by conditioned DCs; format: cell-based, mouse
# Protocol: FIG. 18 graphically illustrates that indole-conditioned DCs induce CCR9 on naïve T cells upon activation. Naïve CD4+CD25− T cells from OT-II mice were co-cultured with OVA323-339 peptide-loaded BMDCs for 72 hours in the presence of RA as indicated. BMDCs were previously treated with indole, RA, or DMF from day 3. Following 3 days of co-culture, surface staining was performed for flow cytometric analysis.
# Based on the observation that indole induces gut homing markers on developing DCs, it was queried whether indole-conditioned DCs could also confer gut homing markers upon naïve CD4+ T cells. The antigen-specific T cell activation model was used to address this question, and a titration of RA was included as a positive control to induce CCR9. […] Just 10 nM of RA enabled indole-DC co-cultures to achieve over 50% of T cells expressing CCR9 which was similar to RA-DC positive controls, whereas DMF-DC co-cultures with the same concentration of RA added achieved only 10% of CCR9+ T cells.
# Naïve CD4+CD25− T cells of spleen and lymph nodes from OT-II mice were isolated by negative selection via column purification using the Naïve CD4+ T Cell Isolation Kit (Miltenyi Biotec). Naïve CD4+ T cells (>96% pure) were labeled with Cell Proliferation Dye efluor450 (eBioscience) following manufacturer's instructions then co-cultured with OVA peptide-loaded BMDCs at a ratio of 2:1 for 72 hours in a 96-well round-bottom tissue culture plate. BMDCs were previously treated with indole or RA from day 3. On day 7, DCs were washed extensively prior to being loaded with OVA323-339 peptide (10 ug/ml) for 1 hour at 37° C. BMDCs were then washed three times and plated with naïve CD4+ T cells. RA or TGFβ were added to co-cultures as indicated. Following 3 days of culture, cells were stained with antibodies to CD4, CCR9, and LPAM-1 (α4β7). Intracellular staining for Foxp3 was performed using a Foxp3 staining kit (eBioscience). The remaining CD4+ helper T cell lineages Th1, Th2, and Th17 were identified by their cytokine production. […]
# [5] = system: B220 (CD45R); experiment: B220 surface expression on BMDCs; format: cell-based, mouse; details: BMDCs cultured from day 3 with indole (1 mM) or retinoic acid (1 μM)
# Protocol: FIGS. 12A and 12B graphically illustrate that indole induces CCR9 and B220 on DCs. BMDCs were cultured in the presence of indole (1 mM), retinoic acid (1 μM), or DMF solvent control from day 3. On day 7, DCs were surface stained for expression of CCR9 and B220 and analyzed by flow cytometry. […] Mean of three independent experiments. * indicates p<0.05 for one-way ANOVA followed by Dunnett's post-test.
# An indole-induced upregulation of the B220 (CD45R) antigen was also observed (FIGS. 12A and 12B), which is widely used to distinguish the plasmacytoid DC lineage and is believed to contribute to gut homing. However, more recently B220 has been reported to distinguish a DC subset more closely developmentally related to conventional rather than plasmacytoid DCs and a precursor to resident CD8+ and CD8− conventional DCs.
smiles,measurement,setting,value
"c1ccc2[nH]ccc2c1 [Indole, indole]",diffusion across membranes,[1],freely diffusible across membranes
same,secretion of nitric oxide (NO),[2],intact
same,increase in Treg induction compared to controls,[3],2 fold
same,T cells expressing CCR9,"[4]; co-culture with DCs conditioned with indole, 10 nM of RA added",over 50%
same,induction of CCR9 on naïve T cells by conditioned BMDCs alone,[4]; no exogenous RA in the co-culture,insufficient; also recorded: did not induce CCR9
same,B220 (CD45R) expression on BMDCs,[5],upregulation
